The record followed here is ChEMBL document CHEMBL5550200, “Back-Pocket Optimization of 2-Aminopyrimidine-Based Macrocycles Leads to Potent EPHA2/GAK Kinase Inhibitors” (J Med Chem, 2024).

Structures are written as SMILES.

The target of this assay is T1, Ephrin type-B receptor 1 (Homo sapiens) (UniProt P54762).
T1 sequence (whole entry): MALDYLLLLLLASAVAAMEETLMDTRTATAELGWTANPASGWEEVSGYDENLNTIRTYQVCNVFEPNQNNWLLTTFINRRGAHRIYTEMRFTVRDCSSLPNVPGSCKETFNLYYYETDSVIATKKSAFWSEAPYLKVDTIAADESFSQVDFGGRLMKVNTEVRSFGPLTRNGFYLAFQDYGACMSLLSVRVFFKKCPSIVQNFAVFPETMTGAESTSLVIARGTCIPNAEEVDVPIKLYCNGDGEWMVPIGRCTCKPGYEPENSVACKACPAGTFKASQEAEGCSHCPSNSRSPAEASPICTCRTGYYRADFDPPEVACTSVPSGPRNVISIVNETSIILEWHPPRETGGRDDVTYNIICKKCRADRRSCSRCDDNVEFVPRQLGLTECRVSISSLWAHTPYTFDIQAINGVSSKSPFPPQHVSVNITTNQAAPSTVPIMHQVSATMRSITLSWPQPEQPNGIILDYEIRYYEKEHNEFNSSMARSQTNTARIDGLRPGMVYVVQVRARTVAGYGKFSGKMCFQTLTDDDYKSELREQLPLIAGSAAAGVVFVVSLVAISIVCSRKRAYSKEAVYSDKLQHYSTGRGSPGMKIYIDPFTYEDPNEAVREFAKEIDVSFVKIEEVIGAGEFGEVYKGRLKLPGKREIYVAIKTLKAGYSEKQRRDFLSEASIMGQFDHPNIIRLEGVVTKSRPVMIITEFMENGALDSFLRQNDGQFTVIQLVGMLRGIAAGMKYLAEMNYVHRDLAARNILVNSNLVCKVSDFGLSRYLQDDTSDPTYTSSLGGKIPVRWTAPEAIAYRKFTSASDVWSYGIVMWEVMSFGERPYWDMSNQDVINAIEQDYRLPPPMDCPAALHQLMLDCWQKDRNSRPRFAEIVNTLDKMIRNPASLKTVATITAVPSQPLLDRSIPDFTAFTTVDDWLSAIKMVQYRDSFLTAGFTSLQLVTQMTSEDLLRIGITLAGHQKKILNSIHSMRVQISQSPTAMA
Nature of the assay: Induction of stabilization of recombinant EPHB1 (unknown origin) assessed as change in melting temperature by differential scanning fluorimetry assay. A general note: In DSF a fluorescence change marks the thermal transition of the protein.

Consider `O=S1(=O)NCCCNc2nc(ncc2-c2ccc(Cl)c(Cl)c2)Nc2cccc1c2`, for which the deltaTm came out at 2.2 K.
For `COc1c(F)ccc(-c2cnc3nc2NCCCNS(=O)(=O)c2cccc(c2)N3)c1F`, the deltaTm is 5.6 K.
As for `COc1cc(-c2cnc3nc2NCCCNS(=O)(=O)c2cccc(c2)N3)c(F)cc1F`, the deltaTm was 3.3 K.
In the case of `COc1cc(-c2cnc3nc2NCCCNS(=O)(=O)c2cc(ccc2O)N3)ccc1F` it was 3.5 K.
